Here are results for 4 molecules from paper PMC4527243, “Role of electrostatic interactions for ligand recognition and specificity of peptide transporters” (BMC Biology, 2015).

For series [1], the target named is T1, YePEPT (Yersinia enterocolitica, UniProt A0A2R9TD79).
T1 construct: gene YEP4_02370; full-length gene in pZUDF21-rbs-3C-10His, C-terminal HRV3C site and deca-His tag, expressed in E. coli BL21(DE3) pLysS; uptake in whole cells
T1 sequence (A0A2R9TD79 1-511): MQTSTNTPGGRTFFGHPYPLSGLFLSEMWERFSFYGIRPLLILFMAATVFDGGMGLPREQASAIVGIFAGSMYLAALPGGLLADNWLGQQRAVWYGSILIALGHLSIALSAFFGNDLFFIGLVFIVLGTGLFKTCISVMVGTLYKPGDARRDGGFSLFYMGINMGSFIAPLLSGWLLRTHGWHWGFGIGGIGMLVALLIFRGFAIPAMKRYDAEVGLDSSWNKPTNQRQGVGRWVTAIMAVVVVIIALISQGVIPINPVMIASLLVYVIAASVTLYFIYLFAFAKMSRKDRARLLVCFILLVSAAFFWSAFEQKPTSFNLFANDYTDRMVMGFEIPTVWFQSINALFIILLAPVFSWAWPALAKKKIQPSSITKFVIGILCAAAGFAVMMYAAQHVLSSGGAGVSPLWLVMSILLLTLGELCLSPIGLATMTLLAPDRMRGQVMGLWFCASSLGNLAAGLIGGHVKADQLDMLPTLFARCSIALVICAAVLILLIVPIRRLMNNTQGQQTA
The experiment in a line: competition of [3H]Ala-Ala uptake in E. coli cells. In kind it is cell-based, Escherichia coli.

The target of series [2] is T1, YePEPT. The experiment in a line: competition of [3H]Ala-Ala uptake in E. coli cells. The format is cell-based. Conditions: 50 μM [3H]Ala-Ala, 2.5 mM competitor, pH 7.5, room temperature.
Substrate in series [3]: C[C@H](N)C(=O)N[C@@H](C)C(=O)O
Nature of the series: [3H]Ala-Ala uptake saturation in E. coli cells. The format is cell-based, Yersinia enterocolitica. Conditions: labelled compound, pH 7.5, 150 mM NaCl, room temperature, 100 s.

Where a SMILES comes first, the peptide text is derived from it.

`C[C@H](NC(=O)[C@@H](N)CC(=O)O)C(=O)O` [Asp-Ala] (H-Asp-Ala-OH): the Ki on YePEPT [1] is about 80 µM.
Same read-out and setting: then `C[C@H](NC(=O)[C@@H](N)CCC(=O)O)C(=O)O` [Glu-Ala] (H-Glu-Ala-OH), with about 50 µM.
Take `C[C@H](NC(=O)[C@@H](N)Cc1ccc(O)cc1)C(=O)O` [Tyr-Ala]: the “competition of [3H]Ala-Ala uptake in E. coli cells” value on YePEPT [2] was “YePEPT also displayed specificity for Ala-Tyr and Tyr-Ala at comparable levels”.

B1: YePEPT (Yersinia enterocolitica subsp. palearctica YE-P4) (protein)
chain: MQTSTNTPGGRTFFGHPYPLSGLFLSEMWERFSFYGIRPLLILFMAATVFDGGMGLPREQASAIVGIFAGSMYLAALPGGLLADNWLGQQRAVWYGSILIALGHLSIALSAFFGNDLFFIGLVFIVLGTGLFKTCISVMVGTLYKPGDARRDGGFSLFYMGINMGSFIAPLLSGWLLRTHGWHWGFGIGGIGMLVALLIFRGFAIPAMKRYDAEVGLDSSWNKPTNQRQGVGRWVTAIMAVVVVIIALISQGVIPINPVMIASLLVYVIAASVTLYFIYLFAFAKMSRKDRARLLVCFILLVSAAFFWSAFEQKPTSFNLFANDYTDRMVMGFEIPTVWFQSINALFIILLAPVFSWAWPALAKKKIQPSSITKFVIGILCAAAGFAVMMYAAQHVLSSGGAGVSPLWLVMSILLLTLGELCLSPIGLATMTLLAPDRMRGQVMGLWFCASSLGNLAAGLIGGHVKADQLDMLPTLFARCSIALVICAAVLILLIVPIRRLMNNTQGQQTA
notes: full-length gene in pZUDF21-rbs-3C-10His, C-terminal HRV3C site and deca-His tag, expressed in E. coli BL21(DE3) pLysS; uptake in whole cells
With B1, the Km in series [3] is 200 µM.
